Results as given in US20150258043A1, “USE OF SPHINGOID LONG CHAIN BASES AND THEIR ANALOGS IN TREATING AND PREVENTING BACTERIAL INFECTIONS” (YEDA RESEARCH AND DEVELOPMENT CO. LTD., priority 2012, published 2015).
Like-named read-outs stand apart in the source and are kept apart here.

Experiments:
[1] = superscript reference marks; cited from earlier work
[2] = test system: sphingosine and ceramide on tracheal and bronchial epithelial cells; assay: Sphingosine and ceramide levels in airway epithelial cells after inhalation (immunostaining, in situ kinase assays); set-up: species or system mouse; details: CF (and CerS2 null) mice, in vivo inhalation
Method: Sphingosine levels were determined in the trachea and lung of wildtype (wt), Cftr- and CerS2 null mice (Teichgräber, V. et al. Nat Med 2008, 14, 382-391; Pewzner-Jung et al. J Biol Chem. 2010 Apr. 2; 285(14):10902-10) and human nasal tissues by (i) confocal microscopy analysis of paraffin sections stained with Cy3-coupled anti-sphingosine antibodies and (ii) by newly developed biochemical assays that employed sphingosine kinase assays to determine sphingosine in freshly isolated tracheal epithelial cells and on the surface of tracheal epithelial cells in situ. In the latter experiments the intact trachea was carefully opened and incubated with sphingosine kinase in the presence of [^32]PγATP. Lipids were extracted and the concentration of sphingosine-1-[^32]P was determined. In addition, surface sphingosine was immunoprecipitated from the surface of tracheal epithelial cells by binding of anti-sphingosine antibodies to the intact inner surface of the trachea, followed by washing, lysis, immobilization of immune complexes, extraction of bound sphingosine and quantification of sphingosine by kinase assays. […]
Mice were sacrificed and the trachea immediately removed. […] The TLC plates were exposed to radiography films, the spots were removed from the plates, and the incorporation of [^32P] into ceramide was measured by liquid scintillation counting. […]

[3] = test system: P. aeruginosa; assay: Sytox green staining (membrane permeabilization of bacteria); format: cell-based, Pseudomonas aeruginosa; details: 50 μM in 1% DMSO, 30 min
Method: FIGS. 4A-D. The ceramide/sphingosine ratio regulates P. aeruginosa growth. (A) Representative image of two independent experiments (left hand panel) after addition of Sytox green (1 μM) for 30 min in the absence or presence of 50 μM sphingosine or 50 μM C16-ceramide (C16-Cer) in 1% DMSO. Fluorescent and thus permeabilised bacteria were quantified (right hand panel). (B-D) The inhibitory effect of sphingosine on the growth of P. aeruginosa strain 762 is decreased in vitro and in vivo by C16-ceramide. (B) Bacteria were incubated with 10 μM sphingosine, and increasing concentrations of C16-ceramide, and growth was determined by counting colony forming unit (CFU) after 24 hrs growth on LB agar plates. Number of bacteria in the lung (C) and sickness score (D) of CF mice or WT mice inhaled with either sphingosine or a combination of sphingosine and C16-ceramide 1 h before (b.i.) with 10^8 P. aeruginosa CFU strain 762. Data are means±s.d., n=3 in (A,B) and n=4 in (C,D).
Bacteria at early logarithmic phase were incubated in the presence or absence of sphingosine or C16-ceramide (C16-cer) (50 μM in 1% DMSO) for 30 minutes at 37° C. […] Sample were examined under fluorescence microscope, and bacteria were counted both in bright field and under green fluorescent filter in two independent experiments.

[4] = test system: P. aeruginosa strain 762; assay: Effect of LCBs on P. aeruginosa growth in vitro (colony counts); format: cell-based, Pseudomonas aeruginosa; details: Pseudomonas aeruginosa
Method: P. aeruginosa strain 762 or ATCC 27853 were grown in LB medium at 37° C. until the early logarithmic phase (OD550 0.2). Bacteria were then diluted in PBS to a concentration of 5×10^3 CFU/ml. Stock solutions of sphingolipids (5 mM in 7.5% n-Octyl-β-D-Glucopyranoside (OGP) or in DMSO were prepared by sonication. Sphingolipids were added to the bacteria (0.1-50 μM in 0.075% OGP or 1% DMSO). Bacteria were incubated with sphingolipids for 2 hr at 37° C. and a sample of 200 μl bacteria solution were plated on LB agar plates, incubated overnight at 37° C. and colonies were counted.
The direct effect of sphingosine and other sphingoid long chain bases (LCBs) on the growth of P. aeruginosa was examined in vitro. Bacteria were incubated with a variety of LCBs and the EC50 values on bacterial growth were determined (Table 1).

In the case of CCCCCCCCCCCCC/C=C/[C@@H](O)[C@@H](N)CO (stereo in doubt) [D-erythro-Sphingosine, (2S,3R)-2-aminooctadec-4-ene-1,3-diol], the “pK (in PBS)” value [1] is given as 6.7^1,2, the “sphingosine levels on airway epithelial cells after inhalation” value [2] is given as “restored sphingosine levels” and the “Sytox green fluorescence of bacteria” value [3] is given as “large increase in fluorescence”. For the same molecule, the EC50 ([4]; 762, Table 3, Example 3, method of Example 2, n=3 for each analog, given as ranges, read-out: EC50) was 0.5 to 1 µM and the EC50 ([4]; P. aeruginosa strain 762, 2 hrs at 37° C. in 0.075% OGP, colonies counted, at least 3 independent experiments, read-out: EC50 (μM) ± S.D.) was 0.5 ± 0.1 µM.
